Marks after values point to notes of the source that are not given here.
Columns and labels:
[1] = Low pH control: chemical stability in pH 2.0 buffer by 31P NMR; type: physicochemical; conditions: 10 mM, 37° C.
Protocol: (§1) Cell lysates from E. coli Tuner(DE3)pLacI cells (Novagen) were obtained by treatment with lysozyme (1 mg/ml) and the DNA was precipitated by protamine sulfate followed by centrifugation to remove cell debris. The supernatant was dialyzed extensively against Buffer A (20 mM Tris (pH 7.0); 1 mM EDTA; 1 mM DTT, 0.01 mM PMSF) to remove cellular phosphates and nucleotides. Phosphate free cell lysates (0.75 mg total protein) were incubated with 5 mM AMP-NH2 in 0.5 ml reaction buffer (0.5 mM MgCl2, 20 mM HEPES (pH 7.2)) at 37° C. for intervals of 15 min, 30 min, and 12 h. The reactions were terminated by snap freezing in a dry ice/acetone slush bath and lyophilized for 5 h. The samples were then dissolved in NMR buffer (600 μL, 50 mM EDTA, 20 mM HEPES (pH 7.2), and 1 mM TMP (trimethylphosphate, internal standard)) and the insoluble portion was spun down by centrifugation at 12,500×g for 5 min. A ^31P NMR spectrum was then collected for the supernatant. For the low pH control experiment, 10 mM AMP-NH2 in reaction buffer (500 μL, pH 2.0) was incubated at 37° C. for 12 h and the 31p signal was detected under the same conditions.
Tuner(DE3)pLacI, a modified E. coli BL21 strain, was used to determine phosphoramidase activity in cell lysates. […]

[2] = target: T1, Rabbit HINT1 (Oryctolagus cuniculus, UniProt P80912); conditions: Bieganowski et al, 2002; cited from earlier work
T1 construct: made in house; host or cells: E. coli hinT deletion mutant
T1 sequence (P80912 whole entry): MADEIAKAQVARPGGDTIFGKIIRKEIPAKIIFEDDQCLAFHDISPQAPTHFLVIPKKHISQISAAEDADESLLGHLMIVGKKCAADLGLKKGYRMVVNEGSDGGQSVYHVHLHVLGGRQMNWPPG

[3] = target: T2, E. coli Tuner(DE3)pLacI cell lysates (Escherichia coli, UniProt P0ACE7); experiment: 31P NMR phosphoramidase activity in cell lysates; type: biochemical
T2 construct: Cell lysates from E. coli Tuner(DE3)pLacI cells (Novagen) were obtained by treatment with lysozyme; host or cells: E. coli Tuner(DE3)pLacI
T2 sequence (P0ACE7 whole entry): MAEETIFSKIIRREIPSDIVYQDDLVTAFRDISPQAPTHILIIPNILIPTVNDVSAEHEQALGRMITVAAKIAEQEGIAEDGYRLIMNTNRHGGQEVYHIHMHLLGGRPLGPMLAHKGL
Protocol: Phosphoramidase activity in cell lysates was measured by the ^1H-decoupling mode of phosphorus-31 NMR spectroscopy (Varian VAC-300 spectrometer), which can clearly distinguish the substrate, AMP-NH2, and the product, adenosine 5′-monophosphate (AMP). NMR spectrometry is suitable for quantitation by integration of the area under the peak, which is proportional to the amount of nuclei present. The relative ratio of peak areas can be used to calculate the amount of turnover corrected based on a standard curve.
as §1, with “The samples were then dissolved in NMR buffer (600 μL, 50 mM EDTA, 20 mM HEPES (pH 7.2), and 1 mM TMP (trimethylphosphate, internal standard)) and the insoluble portion was spun down by centrifugation at 12,500×g for 5 min. A ^31P NMR spectrum was then collected for the supernatant.” left out, “conditions. […]” for “conditions.”

[4] = target: T3, hHINT1 (Homo sapiens, UniProt P49773); conditions: literature (J. Biol. Chem. 2004, 279, 18711; 2002, 277, 10852); cited from earlier work
T3 sequence (P49773 whole entry): as the sequence (P80912 whole entry) above, with Q37R, A65V, A69D, K91N, N122H counted along it

[5] = target: T3, hHINT1; experiment: Catalytic activity (velocity) of cloned, purified phosphoramidase with AMPNH2; type: biochemical
Description: The enzyme responsible for hydrolysis of AZT amino acid phosphoramidates was cloned and characterized. After construction of a cDNA library from peripheral blood mononuclear cells (PBMCs) in T7Select10-3b phage, the phage display technique was employed to isolate the enzyme by affinity chromatography. After three rounds of phage selection and ampilification with an affinity column constructed from the L-tryptophan carbamate, DNA from ten selected plaques was amplified by PCR and sequenced. […] Hint1 is a member of the HIT protein superfamily, which consists of a recently identified adenosine 5′-monophosphoramide hydrolases from rabbit and yeast.
Velocity of the enzymes was determined at pH 7.2 at room temperature in the presence of 10 mM AMPNH2.

[6] = target: T4, Yeast HNT (Saccharomyces cerevisiae, UniProt Q04344); conditions: Bieganowski et al, 2002; cited from earlier work
T4 sequence (Q04344 1-158): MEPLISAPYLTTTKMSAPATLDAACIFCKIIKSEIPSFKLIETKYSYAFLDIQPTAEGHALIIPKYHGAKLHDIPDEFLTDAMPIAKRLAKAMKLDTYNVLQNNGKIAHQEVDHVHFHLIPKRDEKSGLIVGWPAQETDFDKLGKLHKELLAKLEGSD

## Nc1ncnc2c1ncn2[C@@H]1O[C@H](COP(N)(=O)O)[C@@H](O)[C@H]1O [AMP-NH2, Adenosine 5′-monophosphoramidate]
[1]
  Stability at pH 2.0 (no detectable AMP or Pi): at least 12 h
[2]
  Velocity: 1.71^b nmol/μg/min
[3]; 12 h incubation, 37° C.
  Extent of hydrolysis to AMP: complete hydrolysis
[3]; pH 7.0, 37° C., 5 mM, averaged for 15 min and 30 min
  Hydrolysis rate by E. coli cell lysates: 76.3 (±20.9) nmol mg^−1 min^−1
[4]
  Kcat: 0.2 s⁻¹
  Km: 0.068 µM
[5]
  Hydrolysis by over-expressed, purified human Hint1: efficiently hydrolyze
[5]; pH 7.2, room temperature, 10 mM AMPNH2
  Velocity: 5.46 nmol/µg/min
[6]
  Velocity: 7.57^b nmol/μg/min
